From patent publication US11000033B2, “Ketone or oxime compound, and herbicide” (NISSAN CHEMICAL CORPORATION, priority 2014, dated 2021)

What was measured:
Format in all cases: in vivo
Monochoria vaginalis = assay: Test Example 1: herbicidal activity, application before weed generation in submerged conditions (symbol C); conditions: application herbicide amount 320 g/ha
Method in brief: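 Pre-emergence, paddy conditions: emulsifiable formulation diluted in water, dosed onto floodwater (4 cm depth) on sowing day. Alluvial soil; weeds sown mixed; rice transplanted at 2.5-leaf stage. Greenhouse 25–30 °C, 3 wk. Score 0–5 (5 = ≥90% kill, 0 = ≤5%).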

Alopecurus myosuroides = assay: Test Example 4: herbicidal effect by soil treatment (symbol J)
Method in brief: (§1)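 Seeds were sown in sterilized diluvial soil, covered with about 1.5 cm of soil, and the soil surface was sprayed with a water-diluted emulsion of the compound at a predetermined rate. Plants grew in a greenhouse at 25° C. to 30° C.; effects were scored visually 3 weeks after application.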

Abutilon theophrasti = assay: Test Example 4: herbicidal effect by soil treatment (symbol M)
Method in brief: as §1

[1] = application herbicide amount 320 g/ha

| SMILES | Herbicidal effect grade, C: Monochoria vaginalis (Monochoria vaginalis) | J: Alopecurus myosuroides, herbicidal effect grade (Alopecurus myosuroides; 320 g/ha) | M: Abutilon theophrasti, herbicidal effect grade (Abutilon theophrasti; 320 g/ha) | J: Alopecurus myosuroides, herbicidal effect grade (Alopecurus myosuroides; [1]) | M: Abutilon theophrasti, herbicidal effect grade (Abutilon theophrasti; [1]) |
| --- | --- | --- | --- | --- | --- |
| CON=C(C)CC1CC(OS(=O)(=O)C2CC2)=C(c2c(C)cc(C)cc2C)C1=O (stereo not drawn) [1-143] | 1 (Herbicidal ratio of 5% or higher and lower than 20%) | 2 (Herbicidal ratio of 20% or higher and lower than 40%) | 0 (Herbicidal ratio of 5% or lower (almost no effect)) |  |  |
| CON=C(C)CC1CC(OS(=O)(=O)CC[Si](C)(C)C)=C(c2c(C)cc(C)cc2C)C1=O (stereo not drawn) [1-144] | 3 (Herbicidal ratio of 40% or higher and lower than 70%) | 4 (Herbicidal ratio of 70% or higher and lower than 90%) | 0 (Herbicidal ratio of 5% or lower (almost no effect)) |  |  |
| CON=C(C)CC1CC(OC(=O)OCc2ccccc2)=C(c2c(C)cc(C)cc2C)C1=O (stereo not drawn) [1-145] | 1 (Herbicidal ratio of 5% or higher and lower than 20%) | 5 (Herbicidal ratio of 90% or more (almost completely withered)) | 4 (Herbicidal ratio of 70% or higher and lower than 90%) |  |  |
| C=CCOC(=O)OC1=C(c2c(C)cc(C)cc2C)C(=O)C(CC(C)=NOC)C1 (stereo not drawn) [1-146] | 1 (Herbicidal ratio of 5% or higher and lower than 20%) | 5 (Herbicidal ratio of 90% or more (almost completely withered)) | 5 (Herbicidal ratio of 90% or more (almost completely withered)) |  |  |
| COCCOC(=O)OC1=C(c2c(C)cc(C)cc2C)C(=O)C(CC(C)=NOC)C1 (stereo not drawn) [1-147] | 1 (Herbicidal ratio of 5% or higher and lower than 20%) | 5 (Herbicidal ratio of 90% or more (almost completely withered)) | 5 (Herbicidal ratio of 90% or more (almost completely withered)) |  |  |
| CON=C(C)CC1CC(OC(=O)C(C)(C)c2ccc(Cl)cc2)=C(c2c(C)cc(C)cc2C)C1=O (stereo not drawn) [1-148] | 3 (Herbicidal ratio of 40% or higher and lower than 70%) | 5 (Herbicidal ratio of 90% or more (almost completely withered)) | 5 (Herbicidal ratio of 90% or more (almost completely withered)) |  |  |
| CON=C(C)CC1CC(OC(=O)c2ccc(C(F)(F)F)cc2)=C(c2c(C)cc(C)cc2C)C1=O (stereo not drawn) [1-149] | 1 (Herbicidal ratio of 5% or higher and lower than 20%) | 5 (Herbicidal ratio of 90% or more (almost completely withered)) | 5 (Herbicidal ratio of 90% or more (almost completely withered)) |  |  |
| CON=C(C)CC1CC(OC(=O)N2CCCCC2)=C(c2c(C)cc(C)cc2C)C1=O (stereo not drawn) [1-151] | 0 (Herbicidal ratio of 5% or lower (almost no effect)) | 5 (Herbicidal ratio of 90% or more (almost completely withered)) | 0 (Herbicidal ratio of 5% or lower (almost no effect)) |  |  |
| CON=C(C)CC1CC(OC(=O)N2CCN(C)CC2)=C(c2c(C)cc(C)cc2C)C1=O (stereo not drawn) [1-152] | 0 (Herbicidal ratio of 5% or lower (almost no effect)) | 3 (Herbicidal ratio of 40% or higher and lower than 70%) | 0 (Herbicidal ratio of 5% or lower (almost no effect)) |  |  |
| C=CCN(CC=C)C(=O)OC1=C(c2c(C)cc(C)cc2C)C(=O)C(CC(C)=NOC)C1 (stereo not drawn) [1-153] | 0 (Herbicidal ratio of 5% or lower (almost no effect)) | 3 (Herbicidal ratio of 40% or higher and lower than 70%) | 0 (Herbicidal ratio of 5% or lower (almost no effect)) |  |  |
| CON=C(C)CC1CC(OC(=O)c2ccccc2C(F)(F)F)=C(c2c(C)cc(C)cc2C)C1=O (stereo not drawn) [1-154] | 2 (Herbicidal ratio of 20% or higher and lower than 40%) | 5 (Herbicidal ratio of 90% or more (almost completely withered)) | 4 (Herbicidal ratio of 70% or higher and lower than 90%) |  |  |
| CON=C(C)CC1CC(OC(=O)c2ccccc2OC(F)(F)F)=C(c2c(C)cc(C)cc2C)C1=O (stereo not drawn) [1-155] | 1 (Herbicidal ratio of 5% or higher and lower than 20%) | 5 (Herbicidal ratio of 90% or more (almost completely withered)) | 5 (Herbicidal ratio of 90% or more (almost completely withered)) |  |  |
| CON=C(C)CC1CC(OC(=O)Cc2ccc(OC)cc2)=C(c2c(C)cc(C)cc2C)C1=O (stereo not drawn) [1-156] | 1 (Herbicidal ratio of 5% or higher and lower than 20%) | 5 (Herbicidal ratio of 90% or more (almost completely withered)) | 5 (Herbicidal ratio of 90% or more (almost completely withered)) |  |  |
| CON=C(C)CC1CC(OC(=O)N(C)c2ccccc2)=C(c2c(C)cc(C)cc2C)C1=O (stereo not drawn) [1-159] | 0 (Herbicidal ratio of 5% or lower (almost no effect)) | 4 (Herbicidal ratio of 70% or higher and lower than 90%) | 0 (Herbicidal ratio of 5% or lower (almost no effect)) |  |  |
| CON=C(C)CC1CC(OC(=O)c2c(Cl)nn(C)c2Cl)=C(c2c(C)cc(C)cc2C)C1=O (stereo not drawn) [1-160] | 2 (Herbicidal ratio of 20% or higher and lower than 40%) | 5 (Herbicidal ratio of 90% or more (almost completely withered)) | 4 (Herbicidal ratio of 70% or higher and lower than 90%) |  |  |
| CON=C(C)CC1CC(OS(=O)(=O)c2ccc(C)cc2)=C(c2c(C)cc(C)cc2C)C1=O (stereo not drawn) [1-161] | 1 (Herbicidal ratio of 5% or higher and lower than 20%) | 3 (Herbicidal ratio of 40% or higher and lower than 70%) | 0 (Herbicidal ratio of 5% or lower (almost no effect)) |  |  |
| CON=C(C)CC1CC(OC(=O)c2ccc(S(C)(=O)=O)c(C(=O)OC)c2Cl)=C(c2c(C)cc(C)cc2C)C1=O (stereo not drawn) [1-162] | 3 (Herbicidal ratio of 40% or higher and lower than 70%) | 5 (Herbicidal ratio of 90% or more (almost completely withered)) | 5 (Herbicidal ratio of 90% or more (almost completely withered)) |  |  |
| CC(=O)C(C(C)=O)C1CC(O)=C(c2c(C)cc(C)cc2C)C1=O (stereo not drawn) [2-002] | 0 (Herbicidal ratio of 5% or lower (almost no effect)) | 0 (Herbicidal ratio of 5% or lower (almost no effect)) | 0 (Herbicidal ratio of 5% or lower (almost no effect)) |  |  |
| COC(=O)C(C(C)=O)C1CC(O)=C(c2c(C)cc(C)cc2C)C1=O (stereo not drawn) [2-003] | 0 (Herbicidal ratio of 5% or lower (almost no effect)) | 4 (Herbicidal ratio of 70% or higher and lower than 90%) | 0 (Herbicidal ratio of 5% or lower (almost no effect)) |  |  |
| CCC(=O)CC1CC(O)=C(c2c(C)cc(C)cc2C)C1=O (stereo not drawn) [2-006] | 3 (Herbicidal ratio of 40% or higher and lower than 70%) |  |  | 5 (Herbicidal ratio of 90% or more (almost completely withered)) | 4 (Herbicidal ratio of 70% or higher and lower than 90%) |
| COCC(=O)CC1CC(O)=C(c2c(C)cc(C)cc2C)C1=O (stereo not drawn) [2-007] | 0 (Herbicidal ratio of 5% or lower (almost no effect)) |  |  | 3 (Herbicidal ratio of 40% or higher and lower than 70%) | 0 (Herbicidal ratio of 5% or lower (almost no effect)) |
| CCOC(=O)C(C(=O)c1ccccc1)C1CC(O)=C(c2c(C)cc(C)cc2C)C1=O (stereo not drawn) [2-008] | 0 (Herbicidal ratio of 5% or lower (almost no effect)) |  |  | 0 (Herbicidal ratio of 5% or lower (almost no effect)) | 0 (Herbicidal ratio of 5% or lower (almost no effect)) |
| CCOC(=O)C(C(=O)C(C)C)C1CC(O)=C(c2c(C)cc(C)cc2C)C1=O (stereo not drawn) [2-009] | 0 (Herbicidal ratio of 5% or lower (almost no effect)) |  |  | 0 (Herbicidal ratio of 5% or lower (almost no effect)) | 0 (Herbicidal ratio of 5% or lower (almost no effect)) |
| CCOC(=O)C(C(=O)C(F)(F)F)C1CC(O)=C(c2c(C)cc(C)cc2C)C1=O (stereo not drawn) [2-010] | 0 (Herbicidal ratio of 5% or lower (almost no effect)) |  |  | 0 (Herbicidal ratio of 5% or lower (almost no effect)) | 0 (Herbicidal ratio of 5% or lower (almost no effect)) |
| CCOC(=O)C(C(=O)Cc1ccccc1)C1CC(O)=C(c2c(C)cc(C)cc2C)C1=O (stereo not drawn) [2-011] | 0 (Herbicidal ratio of 5% or lower (almost no effect)) |  |  | 0 (Herbicidal ratio of 5% or lower (almost no effect)) | 0 (Herbicidal ratio of 5% or lower (almost no effect)) |
| CCOC(=O)C(CC)(C(C)=O)C1CC(O)=C(c2c(C)cc(C)cc2C)C1=O (stereo not drawn) [2-012] | 0 (Herbicidal ratio of 5% or lower (almost no effect)) |  |  | 0 (Herbicidal ratio of 5% or lower (almost no effect)) | 0 (Herbicidal ratio of 5% or lower (almost no effect)) |
